Experimental findings from US20220315572A1, “SUBSTITUTED CYANOPYRROLIDINES WITH ACTIVITY AS USP30 INHIBITORS” (MISSION THERAPEUTICS LIMITED, priority 2019, published 2022) are described below.

Bounds are passed on as bounds.

The target in test [1] is T1, USP30 (Homo sapiens, UniProt Q70CQ3).
T1 construct: purchased Boston Biochem E582
T1 sequence (Q70CQ3 57-517 limits assumed): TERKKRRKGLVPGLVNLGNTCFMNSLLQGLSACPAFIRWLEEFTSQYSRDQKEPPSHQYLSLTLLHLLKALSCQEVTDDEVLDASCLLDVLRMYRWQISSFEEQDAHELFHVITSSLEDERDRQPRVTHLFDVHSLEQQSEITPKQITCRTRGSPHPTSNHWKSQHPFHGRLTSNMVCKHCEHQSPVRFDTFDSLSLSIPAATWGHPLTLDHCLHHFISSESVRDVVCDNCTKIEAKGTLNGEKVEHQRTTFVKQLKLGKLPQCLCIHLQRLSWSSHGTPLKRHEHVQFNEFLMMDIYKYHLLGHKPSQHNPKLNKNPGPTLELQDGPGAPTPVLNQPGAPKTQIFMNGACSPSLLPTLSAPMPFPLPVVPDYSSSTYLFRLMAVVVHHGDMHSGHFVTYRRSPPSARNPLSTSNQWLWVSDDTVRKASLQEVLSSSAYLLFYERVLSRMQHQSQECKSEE
Briefly: USP30 biochemical IC50 assay (fluorescence polarisation). As to conditions: USP30 biochemical IC50 assay, exemplary compounds; read-out: IC50. As to the method: Dilution plates were prepared at 21 times the final concentration (2100 μM for a final concentration of 100 μM) in 50% DMSO in a 96-well polypropylene V-bottom plate (Greiner #651201). A typical 8-point dilution series would be 100, 30, 10, 3, 1, 0.3, 0.1, 0.03 μM final. Reactions were performed in duplicate in black 384 well plates (small volume, Greiner 784076) in a final reaction volume of 21 μl. Either […] of 50% DMSO or diluted compound was added to the plate. USP30 (Boston Biochem #E582) was diluted in reaction buffer (40 mM Tris, pH 7.5, 0.005% Tween 20, 0.5 mg/ml BSA, 5 mM beta-mercaptoethanol) to achieve a final assay concentration of 4 nM, and 10 μl of diluted USP30 was added to the compound. Enzyme and compound were incubated for 30 min at room temp. Reactions were initiated by the addition of 50 nM of TAMRA labelled peptide linked to ubiquitin via an iso-peptide bond as fluorescence polarisation substrate. Reactions were read immediately after addition of substrate and following a 2-hour incubation at room temperature. Readings were performed on a Pherastar Plus (BMG Labtech). λ Excitation 540 nm; λ Emission 590 nm.
(Polarisation of emitted light reports the rotation of a fluorescent probe.)

For test [2], the target named is T2, UCHL1 (Homo sapiens, UniProt P09936).
T2 sequence (P09936 1-223): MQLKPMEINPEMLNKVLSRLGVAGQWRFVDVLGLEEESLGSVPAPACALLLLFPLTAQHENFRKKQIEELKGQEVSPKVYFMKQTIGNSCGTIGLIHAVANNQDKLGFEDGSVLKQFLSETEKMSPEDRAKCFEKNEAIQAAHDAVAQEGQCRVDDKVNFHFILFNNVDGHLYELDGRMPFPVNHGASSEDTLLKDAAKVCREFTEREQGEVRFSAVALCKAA
The experiment in a line: DUB biochemical IC50 assay, UCHL1.

Test [3] relates to USP2, USP10, USP16, USP21, USP22, USP25, USP28, USP35, USP46. Briefly: DUB biochemical IC50 assays, nine DUBs. The conditions noted are these: range over the nine DUBs; for IC50: Ref. Ex. C excl. USP22, Ref. Ex. D excl. USP2, 46.
The target in test [4] is Cathepsin B (Homo sapiens, UniProt P07858). The experiment in a line: Cathepsin IC50, cathepsin B. Format: biochemical.
The target in test [5] is T3, Cathepsin K (Homo sapiens, UniProt P43235).
T3 sequence (P43235 115-329): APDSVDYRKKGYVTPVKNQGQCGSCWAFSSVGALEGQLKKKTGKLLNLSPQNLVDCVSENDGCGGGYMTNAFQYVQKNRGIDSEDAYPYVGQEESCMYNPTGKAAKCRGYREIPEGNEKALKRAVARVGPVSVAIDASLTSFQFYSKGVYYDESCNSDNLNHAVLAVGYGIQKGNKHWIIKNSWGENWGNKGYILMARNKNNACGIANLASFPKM
Briefly: Cathepsin IC50, cathepsin K. Format: biochemical.

The target of test [6] is Cathepsin L (Homo sapiens, UniProt P07711). Briefly: Cathepsin IC50, cathepsin L. Format: biochemical.
In test [7] the target is Cathepsin S (Homo sapiens, UniProt P25774). Briefly: Cathepsin IC50, cathepsin S. Format: biochemical.
Test [8] addresses Cathepsin V (Homo sapiens, UniProt O60911). The experiment in a line: Cathepsin IC50, cathepsin V. Type of test: biochemical.
Test [9] concerns Cathepsins B, K, L, S, V. Briefly: Cathepsin IC50, range over B, K, L, S, V. Format: biochemical. The conditions noted are these: for Selectivity preference for USP30 v cathepsins: range over cathepsins B, K, L, S; for IC50: range over the five cathepsins.
Test [10] relates to HCT116 human colorectal carcinoma cells. Briefly: In vitro cytotoxicity (Cell Tox), alamarBlue. Format: cell-based. An excerpt: There is also a need for compounds that have a favourable safety profile, which may be measured by a variety of standard in vitro and in vivo methods. A cell toxicity counter-screen may be used to assay the anti-proliferative/cytotoxic effect in a particular cell line (e.g. HCT116) by fluorometric detection of rezasurin (alamarBlue) to resofurin in response to mitochondrial activity.
In Vitro Cytotoxicity (Cell Tox): Measured in HCT116 human colorectal carcinoma cells using alamarBlue as the assay endpoint. Compound cytotoxicity was measured over a period of 96-hour continual compound exposure.
Background: The colour change of resazurin is a common sign of viable cells or microbes.

In test [11] the target is T4, Endogenous USP30 (Homo sapiens, UniProt Q70CQ3).
T4 construct: USP30 endogenous cellular target engagement western blot (WB) assay; endogenous in cells; host or cells: HeLa stably overexpressing YFP-Parkin
T4 sequence (Q70CQ3 1-517): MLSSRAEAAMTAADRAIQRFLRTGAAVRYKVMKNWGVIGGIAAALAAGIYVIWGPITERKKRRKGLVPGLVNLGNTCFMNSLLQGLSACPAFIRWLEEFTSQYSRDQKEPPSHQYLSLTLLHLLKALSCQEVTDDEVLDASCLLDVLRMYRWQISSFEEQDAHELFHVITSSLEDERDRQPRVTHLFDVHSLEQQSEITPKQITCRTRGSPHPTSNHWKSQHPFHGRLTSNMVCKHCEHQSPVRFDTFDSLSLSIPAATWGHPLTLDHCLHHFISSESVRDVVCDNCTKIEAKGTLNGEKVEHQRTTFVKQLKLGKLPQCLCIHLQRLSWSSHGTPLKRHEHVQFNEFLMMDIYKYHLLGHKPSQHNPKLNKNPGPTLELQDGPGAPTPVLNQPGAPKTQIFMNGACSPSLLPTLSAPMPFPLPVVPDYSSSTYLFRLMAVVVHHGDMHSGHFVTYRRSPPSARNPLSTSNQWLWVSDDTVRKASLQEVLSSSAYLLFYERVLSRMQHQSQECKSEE
Briefly: USP30 endogenous cellular target engagement western blot assay (Cell TE WB). Type of test: cell-based. As to conditions: Hela cells stably overexpressing YFP-Parkin, 1 hour. As to the method:
Hela cells stably overexpressing YFP-Parkin were seeded into 6 well dishes. Once adhered, cells were treated with appropriate concentrations of test compounds or vehicle control for 1 hour at 37° C., 5% CO2. Whole cell lysates were prepared by scraping the cells into cold PBS, centrifuging and lysing in lysis buffer (50 mM Tris-base, pH 7.5, 50 mM NaCl, 1% NP-40/Igepal CA-630, 2 mM MgCl2, 10% Glycerol, 5 mM beta-mercaptoethanol, cOmplete mini tablets EDTA free (Roche), PhosStop tablets (Roche)) for 10 mins. The equivalent of 20 μg of protein from the cleared cell lysate was incubated with a final conc of 2.5 μM HA-Ahx-Ahx-Ub-VME probe at room temperature. The reaction was stopped by addition of 5×SDS sample loading buffer and proteins separated by SDS PAGE and western blotting. USP30 was detected using an anti-USP30 Sheep S746D antibody (MRC PPU Reagents and Services) and a rabbit anti sheep secondary IgG (H+L) horseradish peroxidase conjugated (Thermo #31480) and visualised using ECL reagent (GE #RPN2109) on a GE LAS4000 imager. Target engagement was measured by quantitation of the bands corresponding to USP30 and USP30 bound to the Ub-VME probe and expression of this proportion compared to vehicle treated control.
Cell TE WB: USP30 endogenous cellular target engagement western blot (WB) assay. Assays the activity of compounds against USP30 in cells using an irreversible activity probe to monitor USP30 activity.

Cathepsin V, sequence (O60911 114-334, species assumed): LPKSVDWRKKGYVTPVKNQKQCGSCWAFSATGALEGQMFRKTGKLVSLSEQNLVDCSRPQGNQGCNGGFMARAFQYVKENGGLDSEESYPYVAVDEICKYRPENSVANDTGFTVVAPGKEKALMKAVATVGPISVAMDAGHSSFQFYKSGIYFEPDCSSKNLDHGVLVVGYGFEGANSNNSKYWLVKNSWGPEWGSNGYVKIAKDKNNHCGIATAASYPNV
Cathepsin S, sequence (P25774 115-331, species assumed): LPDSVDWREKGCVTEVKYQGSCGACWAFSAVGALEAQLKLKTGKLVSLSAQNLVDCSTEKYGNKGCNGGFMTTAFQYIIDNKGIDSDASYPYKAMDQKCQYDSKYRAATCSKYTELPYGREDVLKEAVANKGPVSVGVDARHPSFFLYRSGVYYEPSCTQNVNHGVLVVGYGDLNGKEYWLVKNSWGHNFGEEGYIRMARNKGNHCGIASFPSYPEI
Cathepsin L, sequence (P07711 114-333, species assumed): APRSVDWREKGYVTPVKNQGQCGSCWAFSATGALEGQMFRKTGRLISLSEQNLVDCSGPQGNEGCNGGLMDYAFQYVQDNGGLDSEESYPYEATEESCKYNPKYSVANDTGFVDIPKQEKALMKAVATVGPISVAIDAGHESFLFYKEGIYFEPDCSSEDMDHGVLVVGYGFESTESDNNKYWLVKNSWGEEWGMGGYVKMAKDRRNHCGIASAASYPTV

What is called IC50 is the midpoint of a concentration-inhibition curve. Broadly, the EC50 is the concentration that produces a half-maximal response. Regarding `COC[C@@H]1C[C@@H](NC(=O)c2nnc(-c3cc(C#N)ccc3OC)o2)CN1C#N` [Example 4, 5-(5-Cyano-2-methoxyphenyl)-N-((3R,5S)-1-cyano-5-(methoxymethyl)pyrrolidine-3-yl)-1,3,4-oxadiazole-2-carboxamide], the concentration for half-maximal inhibition (IC50) is 0.029 µM in [1]; above 300 µM in test [2]; at least 10.6 µM in test [3]; 111 µM in test [4]; 44.5 µM in test [5]; 54.5 µM in test [6]. Besides, the IC50 in test [7] is 226 µM; in test [8], 223 µM; in [9], 44.5 to 226 µM. The “DUB selectivity preference for USP30 v UCHL1” value in test [2] turned out to be 10300. Also, in [3], the “DUB selectivity preference for USP30 v 9 DUBs” value was 365-10300. Besides, the “Selectivity preference for USP30 v cathepsins” value in test [9] is given as 1500-7800. Moreover, the “Cell Tox EC50/USP30 IC50” value in test [10] is on record as above 1000. Moreover, the concentration giving a half-maximal response (EC50) in test [10] (Homo sapiens, HCT-116, 96-hour continual compound exposure, alamarBlue) was above 30 µM; in test [11] it was 0.087 µM.
Consider `COc1ccc(C#N)cc1-c1nnc(C(=O)N[C@@H]2C[C@@H](C)N(C#N)C2)o1` [Example 5, 5-(5-Cyano-2-methoxyphenyl)-N-((3R,5R)-1-cyano-5-methylpyrrolidin-3-yl)-1,3,4-oxadiazole-2-carboxamide], for which the IC50 was 0.034 µM in test [1]; above 300 µM in [2]; at least 12.4 µM in test [3]; above 300 µM in test [4]; 24.5 µM in test [5]; above 300 µM in test [6]. Further, the half-inhibitory concentration (IC50) is above 300 µM in [7], 162 µM in test [8] and 24.5 to 300 µM in test [9]. Further, in [2], the “DUB selectivity preference for USP30 v UCHL1” value is on record as 8800. Moreover, in test [3], the “DUB selectivity preference for USP30 v 9 DUBs” value is listed as 360-8800. Further, in test [9], the “Selectivity preference for USP30 v cathepsins” value is reported as 720-8800. The response in test [11] was half-maximal at 0.072 µM (EC50).
